Results taken from patent publication US12649746B2, “Ketorolaco derivative, pharmaceutical composition and preparation method therefor and use thereof” (NANJING HERON PHARMACEUTICAL SCIENCE AND TECHNOLOGY CO., …, priority 2020, dated 2026).

Key:
[1] = Stability study of levorotatory enantiomer of compounds in solvent (MCT); assay type: physicochemical; settings: MCT solution; for Isomer (%): dextrorotatory form
Experimental: 2. Test method: the samples were prepared according to Table 2, wherein each sample was dispensed into 10 vials according to the lofting volume, and the samples were lofted according to Table 3.
4. The related substance was determined according to high performance liquid chromatography (General Chapter 0512, China Pharmacopoeia, 2015 Edition).
(1) Chromatographic conditions: the chromatography column was Agilent ZORBAX SB-C8, 4.6 mm×250 mm, 5 μm, and 0.1% phosphoric acid solution-acetonitrile (50:50) was used as a mobile phase; the detection wavelength was […]; the flow rate was 1.0 mL/min; the column temperature was 40° C., and linear gradient elution was performed according to the following table;
(§1) (2) Determination method: an appropriate amount of the product was weighed precisely, a diluent (absolute ethanol) was added and shaken to dissolve, and quantitatively diluted to give a solution containing 0.4 mg per 1 mL, the solution was […] by vortex for 30 s, and filtered with PTFE filter membrane (0.22 μm, JINTENG), and the filtrate was collected as a test sample solution. 10 μL of the solution was weighed precisely and injected into a liquid chromatograph, and a chromatogram was recorded; if an impurity peak existed in the chromatogram of the test sample solution, calculation was performed according to a peak area normalization method to give the target product.
5. Isomer determination was performed according to high performance liquid chromatography (General Chapter 0512, China Pharmacopoeia, 2015 Edition).
(1) Chromatographic conditions: cellulose-tris(3,5-dimethylphenylcarbamate)silica gel was used as filler (Chiralcel OD-H, 250×4.6 mm, 5 μm); n-hexane-isopropanol (90:10) was used as a mobile phase, and isocratic elution was performed for 25 min at a flow rate of 1.0 mL/min; the column temperature was 35° C.; the detection wavelength was 310 nm.
as §1, with “(n-hexane-isopropanol (90:10))” for “(absolute ethanol)”, “about 1.0” for “0.4”, “20” for “10”, “isomer” for “impurity”

[2] = High temperature stability study of compounds (60° C.); assay type: physicochemical; settings: in the dark; for Ketorolac (%): related substance
Experimental: Test protocol: the compounds prepared in the present disclosure were placed in a colorless and transparent vial, placed in the dark at a high temperature (60° C.), and were sampled for day 0, day 5 and day 10, respectively, and the purity of the compounds and the change of the related substance (ketorolac) were determined.

[3] = By-product toxicity test (metabolic byproducts in the human body); settings: for Metabolic by-products in human body: by the metabolic pathways of the compounds in the human body; for Toxicity: toxicity of the metabolic by-products in human body

CC(C)OC(=O)OC(C)OC(=O)[C@H]1CCn2c(C(=O)c3ccccc3)ccc21 (stereo partly drawn) [N2(S)]
Ketorolac (%) ([1]; 5° C., Day 5): 0.2%
Purity (%) ([1]; 5° C., Day 5): 99.08%
Ketorolac (%) ([1]; 5° C., Day 15): 0.14%
Purity (%) ([1]; 5° C., Day 15): 99.18%
Ketorolac (%) ([1]; 5° C., Day 30): 0.25%
Purity (%) ([1]; 5° C., Day 30): 99.01%
Ketorolac (%) ([1]; 5° C., day 0): 0.16%
Purity (%) ([1]; 5° C., day 0): 99.14%
Ketorolac (%) ([1]; 25° C., Day 5): 0.21%
Purity (%) ([1]; 25° C., Day 5): 99.08%
Ketorolac (%) ([1]; 25° C., Day 15): 0.17%
Purity (%) ([1]; 25° C., Day 15): 99.13%
Ketorolac (%) ([1]; 25° C., Day 30): 0.28%
Purity (%) ([1]; 25° C., Day 30): 98.95%
Ketorolac (%) ([1]; 25° C., day 0): 0.16%
Purity (%) ([1]; 25° C., day 0): 99.14%
Ketorolac (%) ([1]; 60° C., Day 5): 0.3%
Purity (%) ([1]; 60° C., Day 5): 98.92%
Ketorolac (%) ([1]; 60° C., Day 15): 0.49%
Purity (%) ([1]; 60° C., Day 15): 98.67%
Ketorolac (%) ([1]; 60° C., Day 30): 0.65%
Purity (%) ([1]; 60° C., Day 30): 98.38%
Ketorolac (%) ([1]; 60° C., day 0): 0.16%
Purity (%) ([1]; 60° C., day 0): 99.14%
Isomer (%) ([1]; 5° C., Day 5): 5.63%
Isomer (%) ([1]; 5° C., Day 15): 5.87%
Isomer (%) ([1]; 5° C., Day 30): 5.99%
Isomer (%) ([1]; 5° C., day 0): 5.65%
Isomer (%) ([1]; 25° C., Day 5): 5.66%
Isomer (%) ([1]; 25° C., Day 15): 5.86%
Isomer (%) ([1]; 25° C., Day 30): 6.01%
Isomer (%) ([1]; 25° C., day 0): 5.65%
Isomer (%) ([1]; 60° C., Day 5): 5.7%
Isomer (%) ([1]; 60° C., Day 15): 5.89%
Isomer (%) ([1]; 60° C., Day 30): 6.13%
Isomer (%) ([1]; 60° C., day 0): 5.65%

CCC(OC(C)=O)OC(=O)C1CCn2c(C(=O)c3ccccc3)ccc21 (centres unmarked) [N3]
Total main peak purity (%) ([2]; Day 0): 92.45%
Total main peak purity (%) ([2]; Day 5): 90.83%
Total main peak purity (%) ([2]; Day 10): 90.36%
Ketorolac (%) ([2]; Day 0): 0.11%
Ketorolac (%) ([2]; Day 5): 0.15%
Ketorolac (%) ([2]; Day 10): 0.17%
Metabolic by-products in human body [3]: Propionaldehyde and acetic acid
Toxicity [3]: relatively low

CCC(=O)OC(C)OC(=O)C1CCn2c(C(=O)c3ccccc3)ccc21 (centres unmarked) [N4]
Total main peak purity (%) ([2]; Day 0): 98.91%
Total main peak purity (%) ([2]; Day 5): 98.38%
Total main peak purity (%) ([2]; Day 10): 98.04%
Ketorolac (%) ([2]; Day 0): 0.12%
Ketorolac (%) ([2]; Day 5): 0.17%
Ketorolac (%) ([2]; Day 10): 0.14%
Metabolic by-products in human body [3]: Acetaldehyde and propionic acid
Toxicity [3]: relatively low

CC(=O)OC(OC(=O)C1CCn2c(C(=O)c3ccccc3)ccc21)C(C)C (centres unmarked) [N5]
Total main peak purity (%) ([2]; Day 0): 97.46%
Total main peak purity (%) ([2]; Day 5): 97.62%
Total main peak purity (%) ([2]; Day 10): 97.37%
Ketorolac (%) ([2]; Day 0): 0.14%
Ketorolac (%) ([2]; Day 5): 0.15%
Ketorolac (%) ([2]; Day 10): 0.17%
Metabolic by-products in human body [3]: Isobutyraldehyde and acetic acid

CCC(=O)OC(OC(=O)C1CCn2c(C(=O)c3ccccc3)ccc21)C(C)C (centres unmarked) [N9]
Total main peak purity (%) ([2]; Day 0): 96.21%
Total main peak purity (%) ([2]; Day 5): 95.58%
Total main peak purity (%) ([2]; Day 10): 95.21%
Ketorolac (%) ([2]; Day 0): 0.29%
Ketorolac (%) ([2]; Day 5): 0.31%
Ketorolac (%) ([2]; Day 10): 0.30%
